pEC50: −log10 of the molar value. Like-named read-outs stand apart in the source and are kept apart here.
Assays:
[1] = system: HCV genotype 1a (H77 strain) replicon in HUH-7 cells; assay: HCV replicon luciferase reporter assay, genotype 1a; format: cell-based; conditions: Hepatitis C virus, Huh-7, 72 h, HCV genotype 1a replicon luciferase, 3 days incubation
Procedure, shortened: (§1)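 Replicon inhibition for both genotypes was measured as Renilla luciferase signal (EnduRen, 7.5 μM final, 2 h) after 3-day, 37° C exposure of replicon-bearing HUH-7 cells in 4% FCS DMEM, 0.5% DMSO. The 1b construct carries S1179I; the 1a H77 construct carries P1496L and S2204I. Twenty-point, 3-fold dilutions were fitted four-parametrically for EC50, and CC50 was taken from multiplexed Cell Titer-Blue.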

[2] = system: HCV genotype 1b (Con1) replicon in HUH-7 cells; assay: HCV replicon luciferase reporter assay, genotype 1b; format: cell-based; conditions: Hepatitis C virus, Huh-7, 72 h, HCV genotype 1b replicon luciferase, 3 days incubation
Procedure, shortened: as §1

Compound	pEC50 ([1]; read-out: LE_1a (EC50, range))	pEC50 ([2]; read-out: LE_1b (EC50, range))	pEC50 ([1]; read-out: LE_1a (EC50))	pEC50 ([2]; read-out: LE_1b (EC50))	pEC50 ([1]; GETYPE1A, read-out: LE_1a (EC50, range))	pEC50 ([2]; GETYPE1B, read-out: LE_1b (EC50, range))
CCn1nc(O[C@@H]2C[C@H]3C(=O)N[C@]4(C(=O)NS(=O)(=O)C5CC5)C[C@H]4/C=C\CC[C@@H](C)C[C@@H](C)[C@H](NC(=O)NC(C)(C)C)C(=O)N3C2)c2ccccc2c1=O [Compound 5072, (2R,6S,7R,9R,13aS,14aR,16aS,Z)-6-(3-(tert-butyl)ureido)-N-(cyclopropylsulfonyl)-2-((3-ethyl-4-oxo-3,4-dihydrophthalazin-1-yl)oxy)-7,9-dimethyl-5,16-dioxo-1,2,3,5,6,7,8,9,10,11,13a,14,14a,15,16,16a-hexadecahydrocyclopropa[e]pyrrolo[1,2-a][1,4]diazacyclopentadecine-14a-carboxamide]	< 7.06	6.99 to 8.32				
CCn1nc(O[C@@H]2C[C@H]3C(=O)N[C@]4(C(=O)NS(=O)(=O)C5CC5)C[C@H]4/C=C\CC[C@H](C)C[C@@H](C)[C@H](NC(=O)c4ccc(N(C)C)cc4)C(=O)N3C2)c2ccccc2c1=O [Compound 5073, (2R,6S,7R,9S,13aS,14aR,16aS,Z)—N-(cyclopropylsulfonyl)-6-(4-(dimethylamino)benzamido)-2-((3-ethyl-4-oxo-3,4-dihydrophthalazin-1-yl)oxy)-7,9-dimethyl-5,16-dioxo-1,2,3,5,6,7,8,9,10,11,13a,14,14a,15,16,16a-hexadecahydrocyclopropa[e]pyrrolo[1,2-a][1,4]diazacyclopentadecine-14a-carboxamide]	< 7.06	< 7.06				
CCn1nc(O[C@@H]2C[C@H]3C(=O)N[C@]4(C(=O)NS(=O)(=O)C5CC5)C[C@H]4/C=C\CC[C@@H](C)C[C@@H](C)[C@H](NC(=O)c4ccc(N(C)C)cc4)C(=O)N3C2)c2ccccc2c1=O [Compound 5074, (2R,6S,7R,9R,13aS,14aR,16aS,Z)—N-(cyclopropylsulfonyl)-6-(4-(dimethylamino)benzamido)-2-((3-ethyl-4-oxo-3,4-dihydrophthalazin-1-yl)oxy)-7,9-dimethyl-5,16-dioxo-1,2,3,5,6,7,8,9,10,11,13a,14,14a,15,16,16a-hexadecahydrocyclopropa[e]pyrrolo[1,2-a][1,4]diazacyclopentadecine-14a-carboxamide]	6.99 to 8.32	6.99 to 8.32				
CCn1nc(O[C@@H]2C[C@H]3C(=O)N[C@]4(C(=O)NS(=O)(=O)C5CC5)C[C@H]4/C=C\CC[C@H](C)C[C@@H](C)[C@H](NC(=O)C(=O)N(C)C)C(=O)N3C2)c2ccccc2c1=O [Compound 5075, N1-((2R,6S,7R,9S,13aS,14aR,16aS,Z)-14a-((cyclopropylsulfonyl)carbamoyl)-2-((3-ethyl-4-oxo-3,4-dihydrophthalazin-1-yl)oxy)-7,9-dimethyl-5,16-dioxo-1,2,3,5,6,7,8,9,10,11,13a,14,14a,15,16,16a-hexadecahydrocyclopropa[e]pyrrolo[1,2-a][1,4]diazacyclopentadecin-6-yl)-N2,N2-dimethyloxalamide]	< 7.06	< 7.06	≤ 6.00	6.00		
CCn1nc(O[C@@H]2C[C@H]3C(=O)N[C@]4(C(=O)NS(=O)(=O)C5CC5)C[C@H]4/C=C\CC[C@@H](C)C[C@@H](C)[C@H](NC(=O)C(=O)N(C)C)C(=O)N3C2)c2ccccc2c1=O [Compound 5076, N1-((2R,6S,7R,9R,13aS,14aR,16aS,Z)-14a-((cyclopropylsulfonyl)carbamoyl)-2-((3-ethyl-4-oxo-3,4-dihydrophthalazin-1-yl)oxy)-7,9-dimethyl-5,16-dioxo-1,2,3,5,6,7,8,9,10,11,13a,14,14a,15,16,16a-hexadecahydrocyclopropa[e]pyrrolo[1,2-a][1,4]diazacyclopentadecin-6-yl)-N2,N2-dimethyloxalamide]	< 7.06	< 7.06				
CCn1nc(O[C@@H]2C[C@H]3C(=O)N[C@]4(C(=O)NS(=O)(=O)C5(CF)CC5)C[C@H]4/C=C\CC[C@H](C)C[C@@H](C)[C@H](NC(=O)OC(C)(C)C(F)(F)F)C(=O)N3C2)c2ccccc2c1=O [Compound 5077]					6.99 to 8.32	6.99 to 8.32
CCCOc1cnc(O[C@@H]2C[C@H]3C(=O)N[C@]4(C(=O)NS(=O)(=O)C5(C)CC5)C[C@H]4/C=C\CC[C@H](C)C[C@@H](C)[C@H](NC(=O)OC(C)(C)C)C(=O)N3C2)c2ccccc12 [Compound 5078, tert-butyl ((2R,6S,7R,9S,13aS,14aR,16aS,Z)-7,9-dimethyl-14a-(((1-methylcyclopropyl)sulfonyl)carbamoyl)-5,16-dioxo-2-((4-propoxyisoquinolin-1-yl)oxy)-1,2,3,5,6,7,8,9,10,11,13a,14,14a,15,16,16a-hexadecahydrocyclopropa[e]pyrrolo[1,2-a][1,4]diazacyclopentadecin-6-yl)carbamate]	6.99 to 8.32	6.99 to 8.32	7.54	8.06		
CCCOc1cnc(O[C@@H]2C[C@H]3C(=O)N[C@]4(C(=O)NS(=O)(=O)C5(C)CC5)C[C@H]4/C=C\CC[C@@H](C)C[C@@H](C)[C@H](NC(=O)OC(C)(C)C)C(=O)N3C2)c2ccccc12 [Compound 5079, tert-butyl ((2R,6S,7R,9R,13aS,14aR,16aS,Z)-7,9-dimethyl-14a-(((1-methylcyclopropyl)sulfonyl)carbamoyl)-5,16-dioxo-2-((4-propoxyisoquinolin-1-yl)oxy)-1,2,3,5,6,7,8,9,10,11,13a,14,14a,15,16,16a-hexadecahydrocyclopropa[e]pyrrolo[1,2-a][1,4]diazacyclopentadecin-6-yl)carbamate]	> 8.26	> 8.26				
CCCOc1cnc(O[C@@H]2C[C@H]3C(=O)N[C@]4(C(=O)NS(=O)(=O)C5(C)CC5)C[C@H]4/C=C\CC[C@H](C)C[C@@H](C)[C@H](NC(=O)O[C@@H]4C[C@@H]5C[C@@H]5C4)C(=O)N3C2)c2ccccc12 [Compound 5080, (1R,3r,5S)-bicyclo[3.1.0]hexan-3-yl((2R,6S,7R,9S,13aS,14aR,16aS,Z)-7,9-dimethyl-14a-(((1-methylcyclopropyl)sulfonyl)carbamoyl)-5,16-dioxo-2-((4-propoxyisoquinolin-1-yl)oxy)-1,2,3,5,6,7,8,9,10,11,13a,14,14a,15,16,16a-hexadecahydrocyclopropa[e]pyrrolo[1,2-a][1,4]diazacyclopentadecin-6-yl)carbamate]	< 7.06	6.99 to 8.32				
CCCOc1cnc(O[C@@H]2C[C@H]3C(=O)N[C@]4(C(=O)NS(=O)(=O)C5(C)CC5)C[C@H]4/C=C\CC[C@@H](C)C[C@@H](C)[C@H](NC(=O)O[C@@H]4C[C@@H]5C[C@@H]5C4)C(=O)N3C2)c2ccccc12 [Compound 5081, (1R,3r,5S)-bicyclo[3.1.0]hexan-3-yl((2R,6S,7R,9R,13aS,14aR,16aS,Z)-7,9-dimethyl-14a-(((1-methylcyclopropyl)sulfonyl)carbamoyl)-5,16-dioxo-2-((4-propoxyisoquinolin-1-yl)oxy)-1,2,3,5,6,7,8,9,10,11,13a,14,14a,15,16,16a-hexadecahydrocyclopropa[e]pyrrolo[1,2-a][1,4]diazacyclopentadecin-6-yl)carbamate]	6.99 to 8.32	> 8.26				
CCCOc1cnc(O[C@@H]2C[C@H]3C(=O)N[C@]4(C(=O)NS(=O)(=O)C5(C)CC5)C[C@H]4/C=C\CC[C@H](C)C[C@@H](C)[C@H](NC(=O)OCC4(C)CC4)C(=O)N3C2)c2ccccc12 [Compound 5082, (1-methylcyclopropyl)methyl ((2R,6S,7R,9S,13aS,14aR,16aS,Z)-7,9-dimethyl-14a-(((1-methylcyclopropyl)sulfonyl)carbamoyl)-5,16-dioxo-2-((4-propoxyisoquinolin-1-yl)oxy)-1,2,3,5,6,7,8,9,10,11,13a,14,14a,15,16,16a-hexadecahydrocyclopropa[e]pyrrolo[1,2-a][1,4]diazacyclopentadecin-6-yl)carbamate]	< 7.06	6.99 to 8.32	6.70	7.34		
CCCOc1cnc(O[C@@H]2C[C@H]3C(=O)N[C@]4(C(=O)NS(=O)(=O)C5(C)CC5)C[C@H]4/C=C\CC[C@@H](C)C[C@@H](C)[C@H](NC(=O)OCC4(C)CC4)C(=O)N3C2)c2ccccc12 [Compound 5083, (1-methylcyclopropyl)methyl ((2R,6S,7R,9R,13aS,14aR,16aS,Z)-7,9-dimethyl-14a-(((1-methylcyclopropyl)sulfonyl)carbamoyl)-5,16-dioxo-2-((4-propoxyisoquinolin-1-yl)oxy)-1,2,3,5,6,7,8,9,10,11,13a,14,14a,15,16,16a-hexadecahydrocyclopropa[e]pyrrolo[1,2-a][1,4]diazacyclopentadecin-6-yl)carbamate]	> 8.26	> 8.26				
CCCOc1cnc(O[C@@H]2C[C@H]3C(=O)N[C@]4(C(=O)NS(=O)(=O)C5(C)CC5)C[C@H]4/C=C\CC[C@H](C)C[C@@H](C)[C@H](NC(=O)O[C@H](C)C(F)(F)F)C(=O)N3C2)c2ccccc12 [Compound 5084, (R)-1,1,1-trifluoropropan-2-yl ((2R,6S,7R,9S,13aS,14aR,16aS,Z)-7,9-dimethyl-14a-(((1-methylcyclopropyl)sulfonyl)carbamoyl)-5,16-dioxo-2-((4-propoxyisoquinolin-1-yl)oxy)-1,2,3,5,6,7,8,9,10,11,13a,14,14a,15,16,16a-hexadecahydrocyclopropa[e]pyrrolo[1,2-a][1,4]diazacyclopentadecin-6-yl)carbamate]	< 7.06	< 7.06	6.28	6.88		
